These results are taken from publication PMC9186491, “Novel Small Molecule Tyrosine Kinase 2 Pseudokinase Ligands Block Cytokine-Induced TYK2-Mediated Signaling Pathways” (Frontiers in Immunology, 2022).

Usually half-life stands for how long it takes for the measured level to halve. High values mean slow decline, low ones rapid decline. A word on the solubility: it is how much of the substance goes into solution per volume. As usually defined, the Kd is the free concentration of one partner at which half of the binding sites on the other are occupied at equilibrium, for simple one-to-one binding.

≈ marks a conversion by molar mass, not a printed value. Read-outs that look alike come from different tables or passages of the source. Some results are limits rather than exact numbers.

The target of data set [1] is CYP450 2C19 (Homo sapiens, UniProt P33261). The data set is described as follows: CYP450 inhibition, 2C19. The class given is in vitro ADME.
The nature of data set [2]: LM T1/2, Mk. The following applies: monkey, liver microsomes. The data set is classed as in vitro ADME.
Data set [3] is described as follows: LM T1/2, M. The following applies: mouse, liver microsomes. The class given is in vitro ADME.
Data set [4] concerns the target CYP450 2C9 (Homo sapiens, UniProt P11712). The data set is described as follows: CYP450 inhibition, 2C9. The data set is classed as in vitro ADME.
The nature of data set [5]: LM T1/2, D. The data set is classed as in vitro ADME. Particulars: dog, liver microsomes.
Data set [6] deals with CYP450 2D6 (Homo sapiens, UniProt P10635). The data set is described as follows: CYP450 inhibition, 2D6. The class given is in vitro ADME.
The target in data set [7] is T1, CYP450 1A2 (Homo sapiens, UniProt P05177).
T1 sequence (P05177 1-516): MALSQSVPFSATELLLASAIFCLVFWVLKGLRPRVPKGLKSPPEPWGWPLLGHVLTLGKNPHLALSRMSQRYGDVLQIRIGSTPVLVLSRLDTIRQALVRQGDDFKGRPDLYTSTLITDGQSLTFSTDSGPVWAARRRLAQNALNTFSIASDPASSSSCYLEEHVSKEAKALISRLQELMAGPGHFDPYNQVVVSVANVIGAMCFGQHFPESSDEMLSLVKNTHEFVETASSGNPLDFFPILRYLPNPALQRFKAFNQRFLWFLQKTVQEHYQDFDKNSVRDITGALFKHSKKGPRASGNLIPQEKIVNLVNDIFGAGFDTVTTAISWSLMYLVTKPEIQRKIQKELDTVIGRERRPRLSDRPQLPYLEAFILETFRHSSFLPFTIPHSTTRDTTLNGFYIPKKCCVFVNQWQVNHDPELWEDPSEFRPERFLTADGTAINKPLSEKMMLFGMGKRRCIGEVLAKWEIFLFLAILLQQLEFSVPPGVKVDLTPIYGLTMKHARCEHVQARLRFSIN
Description: CYP450 inhibition, 1A2. The data set is classed as in vitro ADME.

Data set [8] concerns the target CYP450 3A4 (Homo sapiens, UniProt P08684). The data set is described as follows: CYP450 inhibition, 3A4. The class given is in vitro ADME. The following applies: 3A4(m); read-out: CYP450 3A4(m).
Data set [9] in a line: Solubility (PBS/Fas/Fes). The class given is physicochemical.
Data set [10] is described as follows: GSH. The data set is classed as in vitro ADME.
The nature of data set [11]: LM T1/2, R. Particulars: rat, liver microsomes. The data set is classed as in vitro ADME.
Data set [12] has as its target T2, TYK2 JH2 pseudokinase domain (Homo sapiens, UniProt P29597).
T2 construct: purchased Eurofins DiscoverX Corporation (contract assay)
The data set is described as follows: KdELECT competition binding assay, TYK2 JH2. Particulars: isolated TYK2 JH2 domain. How it is done:
(§1) The KdELECT competition assays were performed to test the binding affinity of compounds to the JH1 kinase region or JH2 pseudokinase region in TYK2 or JAK by ligand competition with JH1 or JH2 protein segments. The assay was carried out at Eurofins DiscoverX Corporation following the established standard protocol (DiscoverX, San Diego, CA). In this assay, compounds that bind to the kinase or pseudokinase protein regions prevent the protein binding to the immobilized ligand and reduce the amount of kinase matter captured on the solid surface. […] Dissociation constants (Kds) for test compound-kinase interactions are calculated by measuring the amount of kinase captured on the solid support as a function of the test compound concentration. […] The ligated beads were blocked with excess biotin and washed with blocking buffer to remove unbound ligand and to reduce nonspecific binding. […] All reactions were performed in polypropylene 384-well plates with a final volume of 20 μL. […] The beads were then re-suspended in the elution buffer and incubated at room temperature with shaking for 30 minutes. The kinase concentration in the eluant was measured by qPCR. Two replicates were performed and averaged to obtain the Kd measurement.

Data set [13] is described as follows: LM T1/2, H. The data set is classed as in vitro ADME. The following applies: human, liver microsomes. Background: Liver microsomes are vesicles of endoplasmic reticulum, rich in cytochrome P450 enzymes.
Data set [14] addresses T3, TYK2 JH1 kinase domain (Homo sapiens, UniProt P29597).
T3 construct: purchased Eurofins DiscoverX Corporation (contract assay)
T3 sequence (P29597 897-1176 limits assumed): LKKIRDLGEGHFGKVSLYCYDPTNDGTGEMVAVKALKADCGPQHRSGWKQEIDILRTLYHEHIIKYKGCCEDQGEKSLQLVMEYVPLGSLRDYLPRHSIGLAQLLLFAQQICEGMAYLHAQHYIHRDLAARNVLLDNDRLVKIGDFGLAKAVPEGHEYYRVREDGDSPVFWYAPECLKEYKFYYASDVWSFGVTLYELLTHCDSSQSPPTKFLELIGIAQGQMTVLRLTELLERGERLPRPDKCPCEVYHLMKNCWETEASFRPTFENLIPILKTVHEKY
The data set is described as follows: KdELECT competition binding assay, TYK2 JH1. The following applies: isolated TYK2 JH1 domain. How it is done: as §1

For data set [15], the system named is IL23-induced TYK2/phosphoSTAT3 (Tyr705) in Kit225 T cells. The data set is described as follows: Kit225 T cell assay for IL23-induced TYK2/phosphoSTAT3 activity. The class given is cell-based, human. The following applies: Homo sapiens, KIT225, read-out: IC50 IL23-induced-STAT3 Phosphorylation. How it is done:
The cells were treated with serially diluted compounds for 1 hour and stimulated with 100 ng/mL human recombinant IL23 (R&D Systems) for 20 minutes. The treated cells were then lysed and cellular phosphorylated-STAT3 (Tyr705) levels were measured by AlphaLISA (PerkinElmer, Cat# ALSU-PST3) according to the manufacturer’s instructions.

Data set [16] has as its system IFNα-induced CXCL10 production in human whole blood. The data set is described as follows: IFNα-induced CXCL10 production in human whole blood. The class given is cell-based. How it is done:
Human whole blood [drawn with Ethylenediaminetetraacetic acid (EDTA) as anti-coagulant] was obtained from Zen-Bio Inc. (Durham, NC). […] The plasma was collected for detection of C-X-C motif chemokine 10 (CXCL10, IP10) secretion. CXCL10 was measured by Human CXCL10/IP-10 AlphaLISA Kit (PerkinElmer, #AL259 C/F) according to the manufacturer’s instructions.

In data set [17] the test system is IFNα-induced TYK2/phosphoSTAT1 (Tyr701) in Kit225 T cells. The data set is described as follows: Kit225 T cell assay for IFNα-induced TYK2/phosphoSTAT1 activity. Particulars: Homo sapiens, KIT225, read-out: IC50 IFNα-induced-STAT1 Phosphorylation. The data set is classed as cell-based, human. How it is done: The cells were treated with serially diluted compounds for 1 hour and stimulated with 80 ng/mL human recombinant IFNα (R&D Systems) for 15 minutes. The treated cells were then lysed and cellular phosphorylated-STAT1 (Tyr701) levels were measured by AlphaLISA (PerkinElmer, Cat#ALSU-PST1) according to the manufacturer’s instructions.

In data set [18] the test system is panel of 98 kinases. Description: Kinome screening panel (DiscoverX scanEdge). The class given is binding. Particulars: 1 µM; 91 non-mutant kinases. How it is done:
For compound selectivity across a multi-kinase panel, compound binding affinity to each kinase or pseudokinase protein region was assessed using the DiscoverX scanEdge screening. Compounds were screened at a concentration of 1,000 nM in competition binding assays at Eurofins DiscoverX Corporation following the established standard protocol (DiscoverX, San Diego, CA), as described previously in the KdELECT competition binding assay. Competition with test compounds for binding to resin conjugated affinity ligand was employed to determine the “hits”, which are identified by measuring the amount of kinase captured in test versus control samples by using a quantitative PCR method that detects the associated DNA label. This measurement assesses compound selectivity against a panel of 98 kinases including kinases from the protein kinase A, G, and C family group (AGC), Ca^2+/calmodulin-dependent protein kinase class of enzymes (CAMK), group of cyclin-dependent kinase (CDK), mitogen-activated protein kinase (MAPK), glycogen synthase kinase (GSK) and CDC-like kinase (CLK) (CMGC), Casein kinase 1 (CK1), group of Ste 7, Ste 11 and Ste 20 kinases (STE), Tyrosine Kinases (TK), Tyrosine Kinase-Like group (TKL), lipid, and atypical kinase families, and other mutant forms.

Setting [19] is: Homo sapiens, read-out: IFNa-induced-CXCL10 Production in Human Whole Blood IC50, Average.
Where [20] appears, read: Homo sapiens, read-out: IFNa-induced-CXCL10 Production in Human Whole Blood IC50, Donor 1.
Where [21] appears, read: Homo sapiens, read-out: IFNa-induced-CXCL10 Production in Human Whole Blood IC50, Donor 2.
[22] abbreviates: Homo sapiens, read-out: IFNa-induced-CXCL10 Production in Human Whole Blood IC50, Donor 3.

T2 sequence (P29597 589-875 limits assumed): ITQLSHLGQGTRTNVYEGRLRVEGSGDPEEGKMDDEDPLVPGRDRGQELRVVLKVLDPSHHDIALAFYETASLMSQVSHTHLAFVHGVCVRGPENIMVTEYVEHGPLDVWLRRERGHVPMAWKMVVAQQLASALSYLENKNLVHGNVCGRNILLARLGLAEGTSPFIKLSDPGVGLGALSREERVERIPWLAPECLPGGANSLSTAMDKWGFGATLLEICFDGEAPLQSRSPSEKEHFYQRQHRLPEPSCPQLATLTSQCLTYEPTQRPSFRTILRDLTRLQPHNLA
CYP450 2D6, sequence (P10635 whole entry): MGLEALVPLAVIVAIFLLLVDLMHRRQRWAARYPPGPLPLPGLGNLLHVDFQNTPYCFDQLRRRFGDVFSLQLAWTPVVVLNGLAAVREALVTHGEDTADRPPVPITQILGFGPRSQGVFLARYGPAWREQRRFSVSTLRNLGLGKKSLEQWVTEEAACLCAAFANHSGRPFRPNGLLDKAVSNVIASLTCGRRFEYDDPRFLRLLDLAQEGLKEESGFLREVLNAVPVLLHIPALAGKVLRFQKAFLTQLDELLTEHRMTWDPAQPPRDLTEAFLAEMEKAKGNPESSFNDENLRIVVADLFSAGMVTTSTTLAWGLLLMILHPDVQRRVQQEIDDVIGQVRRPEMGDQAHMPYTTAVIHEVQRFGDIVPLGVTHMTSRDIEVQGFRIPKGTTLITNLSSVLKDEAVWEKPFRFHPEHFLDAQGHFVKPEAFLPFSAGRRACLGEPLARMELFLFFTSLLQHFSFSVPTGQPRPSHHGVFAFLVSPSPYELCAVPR
CYP450 2C9, sequence (P11712 whole entry): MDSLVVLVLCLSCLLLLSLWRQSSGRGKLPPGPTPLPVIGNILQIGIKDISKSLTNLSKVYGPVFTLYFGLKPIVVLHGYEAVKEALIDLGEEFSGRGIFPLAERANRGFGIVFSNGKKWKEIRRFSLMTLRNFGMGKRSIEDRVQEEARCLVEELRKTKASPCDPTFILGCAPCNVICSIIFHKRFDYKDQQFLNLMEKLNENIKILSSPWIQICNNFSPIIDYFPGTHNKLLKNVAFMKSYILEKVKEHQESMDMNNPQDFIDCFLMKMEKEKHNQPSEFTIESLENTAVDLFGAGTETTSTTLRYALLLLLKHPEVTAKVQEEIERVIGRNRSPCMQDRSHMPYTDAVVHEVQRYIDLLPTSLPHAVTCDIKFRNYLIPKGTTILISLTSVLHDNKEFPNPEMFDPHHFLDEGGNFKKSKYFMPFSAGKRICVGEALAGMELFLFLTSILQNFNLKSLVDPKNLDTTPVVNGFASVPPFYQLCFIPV
CYP450 3A4, sequence (P08684 whole entry): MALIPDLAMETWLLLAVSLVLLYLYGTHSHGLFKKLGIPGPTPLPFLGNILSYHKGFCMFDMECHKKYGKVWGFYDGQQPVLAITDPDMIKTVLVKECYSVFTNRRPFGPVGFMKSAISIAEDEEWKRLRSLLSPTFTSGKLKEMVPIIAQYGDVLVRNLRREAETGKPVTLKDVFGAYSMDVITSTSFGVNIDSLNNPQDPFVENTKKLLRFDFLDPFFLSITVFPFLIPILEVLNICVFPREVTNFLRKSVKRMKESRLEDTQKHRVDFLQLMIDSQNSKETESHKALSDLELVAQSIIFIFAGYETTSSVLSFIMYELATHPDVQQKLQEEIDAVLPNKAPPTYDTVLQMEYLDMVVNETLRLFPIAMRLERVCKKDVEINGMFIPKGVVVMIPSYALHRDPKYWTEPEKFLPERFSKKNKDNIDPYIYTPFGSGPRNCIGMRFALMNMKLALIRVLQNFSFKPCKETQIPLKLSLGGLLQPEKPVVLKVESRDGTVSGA
CYP450 2C19, sequence (P33261 whole entry): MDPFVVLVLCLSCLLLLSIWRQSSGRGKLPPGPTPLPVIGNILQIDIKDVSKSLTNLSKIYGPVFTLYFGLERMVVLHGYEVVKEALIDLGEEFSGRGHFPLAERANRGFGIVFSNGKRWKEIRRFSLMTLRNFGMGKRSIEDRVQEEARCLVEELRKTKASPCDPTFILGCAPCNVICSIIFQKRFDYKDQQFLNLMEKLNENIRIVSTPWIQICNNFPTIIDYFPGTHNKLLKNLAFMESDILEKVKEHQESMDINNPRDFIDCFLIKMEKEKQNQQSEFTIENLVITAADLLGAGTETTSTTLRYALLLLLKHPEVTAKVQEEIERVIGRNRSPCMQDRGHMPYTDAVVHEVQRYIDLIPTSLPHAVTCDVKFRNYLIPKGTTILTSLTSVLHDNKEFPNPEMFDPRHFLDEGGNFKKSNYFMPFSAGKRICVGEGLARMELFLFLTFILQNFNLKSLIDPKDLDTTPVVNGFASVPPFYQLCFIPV

For the compound `CNC(=O)c1nnc(NC(=O)C2CC2)c2[nH]c(-c3ccccc3OC)cc12` [SHR2178], the IC50 in data set [1] was 30000 nM; in data set [4] it was 30000 nM; in data set [6], 30000 nM; in data set [7], 4000 nM; in data set [8], 30000 nM. In addition, the half-life in data set [2] was determined as 99 min; in [3] it was 55 min; in [5], 40 min; in data set [11], 24 min; in data set [13] it was 34 min. In addition, the solubility in [9] (FaSSIF, read-out: Solubility, Fas) was 1.7 µM (≈ 0.621 µg/mL); in data set [9] (FeSSIF (Fes [sic]), fessif, read-out: Solubility, Fes) it was 3.5 µM (≈ 1.28 µg/mL); in [9] (PBS, aqueous buffer, read-out: Solubility, PBS), 0.1 µM (≈ 0.0365 µg/mL). Moreover, the GSH entry in data set [10] is recorded as “negative”. Further, the values for the Kd in data set [12] and in data set [14] were 0.34 nM and more than 20000 nM, respectively.
Regarding `O=C(Nc1nc2cccc(-c3ccc(CN4CCS(=O)(=O)CC4)cc3)n2n1)C1CC1` [Filgotinib], the IC50 in data set [15] amounted to 3800 nM; in data set [16] (Homo sapiens; average of Donor 1-3; read-out: IFNa-induced-CXCL10 Production in Human Whole Blood IC50, Average), 730 nM; in [16] (Homo sapiens; read-out: IFNa-induced-CXCL10 Production in Human Whole Blood IC50, Donor 1), 770 nM; in data set [16] (Homo sapiens; read-out: IFNa-induced-CXCL10 Production in Human Whole Blood IC50, Donor 2) it was 790 nM; in data set [16] (Homo sapiens; read-out: IFNa-induced-CXCL10 Production in Human Whole Blood IC50, Donor 3) it was 630 nM; in data set [17] it was 250 nM.
On to `CC[C@@H]1CN(C(=O)NCC(F)(F)F)C[C@@H]1c1cnc2cnc3[nH]ccc3n12` [Upadacitinib], for which the IC50 came to 22 nM in data set [15]; 120 nM in [16] (setting [19]); 130 nM in data set [16] (setting [20]); 110 nM in [16] (setting [21]); 130 nM in data set [16] (setting [22]); 7 nM in data set [17].
For `N#CC[C@H](C1CCCC1)n1cc(-c2ncnc3[nH]ccc23)cn1` [Ruxolitinib], the IC50 in [15] worked out at 3 nM; in data set [16] (setting [19]), 1900 nM; in data set [16] (setting [20]), 2100 nM; in data set [16] (setting [21]), 2800 nM; in [16] (setting [22]), 740 nM; in data set [17], 12 nM.
For `[2H]C([2H])([2H])NC(=O)c1nnc(NC(=O)C2CC2)cc1Nc1cccc(-c2nc3c(s2)CN(S(C)(=N)=O)C3)c1OC` (stereo not drawn) [SHR3110], the IC50 was found to be 24 nM in data set [15]; 570 nM in data set [16] (setting [19]); 480 nM in [16] (setting [20]); 710 nM in data set [16] (setting [21]); 520 nM in data set [16] (setting [22]); 16 nM in data set [17].
`CNC(=O)c1cnc(Nc2ccc(N3CCC3)cn2)cc1Nc1ccccc1S(C)(=O)=O` [SHR1274]: in [12], binding was put at a Kd of 0.053 nM. Besides, in data set [18], the “No. of Hits S (1)” value is recorded as 1, the “No. of Hits S (10)” value was found to be 1 and the “No. of Hits S (35)” value is recorded as 2.
On to `Cn1cc(-c2cn3nccc3c(-c3cnn([C@]4(CC#N)C[C@@H](C#N)C4)c3)n2)cn1` [Ropsacitinib], for which, in data set [16] (human whole blood, IFNα 16 hours; read-out: TYK2-associated IFNα-induced-CXCL10 Production in Human Whole Blood: IC50), the IC50 amounted to 2000 ± 960 nM.
